Literature values, collected in PubChem BioAssay AID1259410 (Chemical Carcinogenesis Research Information System (CCRIS), 2018).

Tested on: rodent tumor promotion studies, tumor incidence
Test: CCRIS tumor promotion studies
[1] = Carcinogen: 7,12-DIMETHYLBENZ(A)ANTHRACENE, Doses [Carcinogen]: TOP, Route [Carcinogen]: DERMAL, Route [Promoter]: DERMAL, Species: MOUSE, Strain/Sex: FEMALE

For `Cn1c(=O)c2c(ncn2C)n(C)c1=O`, the outcome (Carcinogen: N-NITROSOBIS(2-OXOPROPYL)AMINE, 60599-38-4, Doses [Carcinogen]: 10 MG/KG 1/WK FOR 3 WK, Doses [Promoter]: 0, 2000 PPM IN DRINKING WATER BEGINNING POST CARCINOGEN TREATMENT AND CONTINUING FOR 37 WK (STUDY DURATION: 40 WK), Route [Carcinogen]: SUBCUTANEOUS, Route [Promoter]: ORAL, Species: HAMSTER, Strain/Sex: HAMSTER/FEMALE) is listed as “pancreas: adenocarcinoma”.
In the case of `C=C(CC(=O)OC)C(=O)OC`, the outcome (Carcinogen: N-METHYLNITROSOUREA, 684-93-5, Doses [Carcinogen]: 100 PPM IN DRINKING WATER FOR 15 WK, Doses [Promoter]: 0, 0.5% IN DRINKING WATER FOR 37 WK BEGINNING POST CARCINOGEN TREATMENT (STUDY DURATION: 52 WK), Route [Carcinogen]: ORAL, Route [Promoter]: ORAL, Species: RAT, Strain/Sex: F344/MALE) is given as “glandular stomach: adenoma, carcinoma”.
In the case of `CC(C)NCC(O)c1ccc(O)c(O)c1` (configuration not stated), the outcome (Carcinogen: N-NITROSOMORPHOLINE, 59-89-2, Doses [Carcinogen]: 175 MG/L IN DRINKING WATER FOR 8 WK, Doses [Promoter]: 0, 0.1 MG/KG BW IN OLIVE OIL 1/2 D FOR 13 WK BEGINNING SIMULTANEOUSLY WITH CARCINOGEN TREATMENT (STUDY DURATION: 13 WK), Route [Carcinogen]: ORAL, Route [Promoter]: SUBCUTANEOUS, Species: RAT, Strain/Sex: SPRAGUE-DAWLEY/MALE) is listed as “liver: carcinoma”.
In the case of `Cn1c(N)nc2c3cccnc3ccc21`, the outcome (Carcinogen: Diethyl nitrosamine (DEN), 55-18-5 and dimethylhydrazine (DMH), 30260-66-3, Carcinogen: Diethyl nitrosamine (DEN), 55-18-5 and dimethylhydrazine (DMH), 30260-66-3, Doses [Carcinogen]: DEN, 200 mg/kg once at -3 days, DMH, 40 mg/kg 4 injections between day 0 and wk 2, Doses [Promoter]: 0, 300 ppm in diet from week 2 to 29, study duration 29 wk, Doses [Promoter]: 0, 300 ppm in diet from week 2 to 29, study duration 29 wk, Route [Carcinogen]: Intraperitoneal (DEN) and subcutaneous (DMH), Route [Promoter]: Oral, Species: Rat, Strain/Sex: F344/Du Crj (20/group with 11 survivors)) is listed as “liver: hepatocellular adenoma and carcinoma. colon adenoma and carcinoma. signif”.
In the case of `CC(=O)Oc1ccc(C(c2ccc(OC(C)=O)cc2)c2ccccn2)cc1`, the outcome (Carcinogen: AZOXYMETHANE, 25843-45-2, Doses [Carcinogen]: 15 MG/KG TWICE ON DAYS 1 AND 5 OF TREATMENT, Doses [Promoter]: 0, 4.3, 43 MG/KG/D 6 D/WK FOR 13 WK (STUDY DURATION: 13 WK), Doses [Promoter]: 0, 4.3, 43 MG/KG/D 6 D/WK FOR 13 WK (STUDY DURATION: 13 WK), Route [Carcinogen]: INTRAPERITONEAL, Route [Promoter]: GAVAGE, Species: RAT, Strain/Sex: WISTAR/MALE) is given as “colon: adenocarcinoma”.
In the case of `C=C(C)[C@]12C[C@@H](C)[C@@]34O[C@](CCCCCCCCC)(O[C@@H]1[C@@H]3[C@@H]1O[C@]1(CO)[C@@H](O)[C@]1(O)C(=O)C(C)=C[C@H]14)O2`, the outcome (Carcinogen: 7,12-DIMETHYLBENZ(A)ANTHRACENE, Doses [Carcinogen]: 100 NMOL ONCE, Doses [Promoter]: 10, 20 NMOL 2/WK FOR 24 WK, Route [Carcinogen]: DERMAL, Route [Promoter]: DERMAL, Species: MOUSE, Strain/Sex: NMRI/FEMALE) is given as “integumentary system (skin): tumor (nos)”.
For `Oc1ccc2c(c1)CCCC2`, the outcome [1] is given as “integumentary system (skin)”.
For `NC(CO)C(=O)O` (configuration not stated), the outcome (Carcinogen: N-ETHYL-N-HYDROXYETHYLNITROSAMINE, 13147-25-6, Doses [Carcinogen]: 500 PPM IN DIET FOR 2 WK, Doses [Promoter]: 0, 100 MG/100 G BW IN 2 ML 5% SALINE GIVEN 1/2 WK FOR 3 DOSES BEGINNING 1 WK POST CARCINOGEN (STUDY DURATION: 32 WK), Route [Carcinogen]: ORAL, Route [Promoter]: SUBCUTANEOUS, Species: RAT, Strain/Sex: WISTAR/MALE) is listed as “kidney: dark cell tumor, clear cell tumor, adenocarcinoma” and the outcome (Carcinogen: N-ETHYL-N-HYDROXYETHYLNITROSAMINE, 13147-25-6, Doses [Carcinogen]: 1000 PPM IN DIET FOR 2 WK, Doses [Promoter]: 0, 100 MG/100 G BW IN 2 ML 5% SALINE GIVEN 1/2 WK FOR 3 DOSES BEGINNING 1 WK POST CARCINOGEN (STUDY DURATION: 32 WK), Route [Carcinogen]: ORAL, Route [Promoter]: SUBCUTANEOUS, Species: RAT, Strain/Sex: WISTAR/MALE) is listed as “kidney: dark cell tumor, clear cell tumor, adenocarcinoma”.
In the case of `Cc1ccc(C)c(O)c1`, the outcome [1] is listed as “integumentary system (skin)”.
For `COc1cc([C@@H]2Oc3cc([C@H]4Oc5cc(O)cc(O)c5C(=O)[C@@H]4O)ccc3O[C@H]2CO)ccc1O`, the outcome (Carcinogen: 1-Methyl-1-nitrosourea, 684-93-5, Doses [Carcinogen]: 50 mg/lg once 30 days after initial silymarin dose, Doses [Promoter]: 0, 0.03, 0.1, 0.3, 1% (w/w) in diet for 140 d beginning at 21 d of age, Doses [Promoter]: 0, 0.03, 0.1, 0.3, 1% (w/w) in diet for 140 d beginning at 21 d of age, Route [Carcinogen]: Intraperitoneal, Route [Promoter]: Oral, Species: Rat, Strain/Sex: Sprague-Dawley/Female (30/27), (30/25), (30/27), (30/23), Strain/Sex: Sprague-Dawley/Female (30/27), (30/25), (30/27), (30/23)) is given as “mammary gland: tumors. silymarin demonstrated a slight enhancement of mammary ca”.
In the case of `Cc1cc(=O)[nH]c(=S)[nH]1`, the outcome (Carcinogen: 2-(ACETYLAMINO)FLUORINE, Doses [Carcinogen]: IG, Doses [Promoter]: IN DIET, Route [Carcinogen]: GAVAGE, Route [Promoter]: ORAL, Species: RAT, Strain/Sex: MALE,FEMALE) is given as “thyroid gland”.
For `CN(C)CCCN1c2ccccc2Sc2ccc(Cl)cc21`, the outcome (Carcinogen: UV IRRADIATION, Doses [Carcinogen]: 0.53 J/CM2 INCREASED BY 20% EVERY 2 WK TO 1.60 J/CM2 AND MAINTAINED AT 1.60 J/CM2 UNTIL DEATH, ADMINISTERED 5 D/WK FOR 1, Doses [Promoter]: 0, 15 UG/G BEGINNING 2 WK POST FIRST CARCINOGEN DOSE ADMINISTERED 2 HR PRIOR TO EACH CARCINOGEN DOSE (STUDY DURATION: 30, Route [Carcinogen]: DERMAL, Route [Promoter]: INTRAPERITONEAL, Species: MOUSE, Strain/Sex: SKH/HRL/FEMALE) is listed as “skin: tumor”.
For `CCCCCCCCCCO`, the outcome [1] is listed as “integumentary system (skin)”.
In the case of `CC(N)Cc1ccccc1` (configuration not stated), the outcome (Carcinogen: BITTNER MAMMARY TUMOR VIRUS, Doses [Promoter]: 0, 0.4 MG/KG/D IN 1 ML/KG OF 0.9% SALINE FOR DURATION OF STUDY (STUDY DURATION: 730 D), Route [Promoter]: SUBCUTANEOUS, Species: MOUSE, Strain/Sex: C3H/FEMALE) is given as “mammary gland: tumor”.
For `Nc1nc(-c2ccccc2)c(-c2ccccc2)s1`, the outcome (Carcinogen: N-ETHYL-N-HYDROXYETHYLNITROSAMINE, 13147-25-6, Doses [Carcinogen]: 1000 PPM IN DRINKING WATER FOR 2 WK, Doses [Promoter]: 0, 1.06% IN DIET FOR 14 WK BEGINNING POST CARCINOGEN TREATMENT (STUDY DURATION: 32 WK), Route [Carcinogen]: ORAL, Route [Promoter]: ORAL, Species: RAT, Strain/Sex: WISTAR/MALE) is listed as “kidney: renal cell tumor” and the outcome (Carcinogen: N-ETHYL-N-HYDROXYETHYLNITROSAMINE, 13147-25-6, Doses [Carcinogen]: 1000 PPM IN DRINKING WATER FOR 2 WK, Doses [Promoter]: 0, 1.06% IN DIET FOR 30 WK BEGINNING POST CARCINOGEN TREATMENT (STUDY DURATION: 32 WK), Route [Carcinogen]: ORAL, Route [Promoter]: ORAL, Species: RAT, Strain/Sex: WISTAR/MALE) is listed as “kidney: renal cell tumor”.
For `C1CCCCC1`, the outcome (Carcinogen: DIMETHYLBENZ[A]ANTHRACENE, 57-97-6, Doses [Carcinogen]: 0.2 UMOL (51.2 UG) IN O.2 ML ACETONE ONCE, Doses [Promoter]: 0, 100 µL 3/WK ADMINISTERED 7 D POST CARCINOGEN DOSE AND CONTINUING FOR DURATION OF STUDY (STUDY DURATION: 1 YR), Route [Carcinogen]: DERMAL, Route [Promoter]: DERMAL, Species: MOUSE, Strain/Sex: SWISS/FEMALE) is given as “skin: tumor, squamous cell papilloma, keratoacanthoma”.
For `NC(=O)c1cccnc1`, the outcome (Carcinogen: DIETHYLNITROSAMINE, 55-18-5, Doses [Carcinogen]: 25 MG/KG ONCE PRECEDED 24 HR BY 70% PARTIAL HEPATECTOMY, Doses [Promoter]: 0, 6.7, 30 MILLIMOLAR IN DRINKING WATER BEGINNING 2 WK POST CARCINOGEN DOSE (STUDY DURATION: 20 MO), Doses [Promoter]: 0, 6.7, 30 MILLIMOLAR IN DRINKING WATER BEGINNING 2 WK POST CARCINOGEN DOSE (STUDY DURATION: 20 MO), Route [Carcinogen]: INTRAPERITONEAL, Route [Promoter]: ORAL, Species: RAT, Strain/Sex: F344/MALE) is listed as “kidney: tumor”.
In the case of `CCCCCCCCCCCCCCCCCC(=O)O[C@@]12C[C@@H](C)[C@@]3(O)[C@@H](C=C(CO)C[C@]4(O)C(=O)C(C)=C[C@@H]34)[C@@H]1C2(C)C`, the outcome (Carcinogen: 7,12-DIMETHYLBENZ[A]ANTHRACENE, 57-97-6, Doses [Carcinogen]: 100 NMOL ONCE, Doses [Promoter]: 0, 100 NMOL 2/WK FOR 39 WK (STUDY DURATION: 39 WK), Route [Carcinogen]: DERMAL, Route [Promoter]: DERMAL, Species: MOUSE, Strain/Sex: NMRI) is given as “skin: tumor”.
In the case of `Oc1ccc(Cl)cc1Cc1ccccc1`, the outcome (Carcinogen: 7,12-DIMETHYLBENZ[A]ANTHRACENE, 57-97-6, Doses [Carcinogen]: 50 UG IN ACETONE ONCE, Doses [Promoter]: 3 MG IN ACETONE 3/WK FOR 51 WK (STUDY DURATION: 52 WK), Route [Carcinogen]: DERMAL, Route [Promoter]: DERMAL, Species: MOUSE, Strain/Sex: CD-1/FEMALE) is given as “skin: papilloma”.
In the case of `O=NN1CCCC1`, the outcome (Carcinogen: N-BUTYL-N-4(HYDROXYBUTYL)NITROSAMINE, 3817-11-6, Doses [Carcinogen]: 0.05% IN DRINKING WATER FOR 2 WK, Doses [Promoter]: 0, 0.02% IN DIET STARTING POST CARCINOGEN AND CONTINUING FOR 22 WK, LEFT URETER LIGATED 8 D POST CARCINOGEN (STUDY DURAT, Route [Carcinogen]: ORAL, Route [Promoter]: ORAL, Species: RAT, Strain/Sex: F344/MALE) is listed as “bladder: papilloma”.
